Source: ChEMBL document CHEMBL1153563, “Comparative in vitro activities of caspofungin and micafungin, determined using the method of the European Committee on Antimicrobial Susceptibility Testing, against yeast isolates obtained in France in 2005-2006” (2008)
In brackets after ≈: the same amount, converted by molar mass. *1 amine or outer side, *2 acyl side, *3 side chain or, on linkers, in order; H or OH if unused. Where a SMILES comes first, the peptide text is derived from it. Bridges are numbered along the chain shown (N, C = ends). [ ]: non-standard residue; d: D form. The star is where a group is joined. hTyr(3S-OH,4S-OH,3'-OSO3H) = N[C@H](C(=O)O)[C@H](O)[C@@H](O)c1ccc(O)c(OS(=O)(=O)O)c1; Orn(4R-OH,5R-OH) = O=C([C@H](C[C@@H](O)[C@@H](O)N[*:3])N[*:1])[*:2]; Pro(3S-OH,4S-Me) = C[C@H]1CN[C@H](C(=O)O)[C@H]1O; X1 = CCCCCOc1ccc(-c2cc(-c3ccc(C(=O)*)cc3)no2)cc1; Gln(3R-OH) = NC(=O)C[C@@H](O)[C@H](N)C(=O)O; Hyp = O=C(O)[C@@H]1C[C@@H](O)CN1

What was measured:
Format in all cases: functional
Candida albicans = test: Antifungal activity against Candida albicans after 24 to 48 hrs by AFST-EUCAST based broth microdilution method
Nakaseomyces glabratus = test: Antifungal activity against Candida glabrata after 24 to 48 hrs by AFST-EUCAST based broth microdilution method
Candida parapsilosis = test: Antifungal activity against Candida parapsilosis ATCC 22019 after 24 to 48 hrs by AFST-EUCAST based broth microdilution method; details: Lodderomyces parapsilosis
Candida tropicalis = test: Antifungal activity against Candida tropicalis after 24 to 48 hrs by AFST-EUCAST based broth microdilution method
[1] = system: Meyerozyma guilliermondii; test: Antifungal activity against Candida guilliermondii after 24 to 48 hrs by AFST-EUCAST based broth microdilution method
Pichia kudriavzevii = test: Antifungal activity against Candida krusei ATCC 6258 after 24 to 48 hrs by AFST-EUCAST based broth microdilution method
Kluyveromyces marxianus = test: Antifungal activity against Candida kefyr after 24 to 48 hrs by AFST-EUCAST based broth microdilution method
[Candida] haemuloni = Antifungal activity against Candida haemulonii after 24 to 48 hrs by AFST-EUCAST based broth microdilution method; details: Candidozyma haemuli
Clavispora lusitaniae = test: Antifungal activity against Candida lusitaniae after 24 to 48 hrs by AFST-EUCAST based broth microdilution method
Meyerozyma caribbica = test: Antifungal activity against Candida fermentati after 24 to 48 hrs by AFST-EUCAST based broth microdilution method
Candida dubliniensis = test: Antifungal activity against Candida dubliniensis after 24 to 48 hrs by AFST-EUCAST based broth microdilution method
Yarrowia lipolytica = test: Antifungal activity against Candida lipolytica after 24 to 48 hrs by AFST-EUCAST based broth microdilution method
Debaryomyces hansenii = test: Antifungal activity against Candida famata after 24 to 48 hrs by AFST-EUCAST based broth microdilution method
Wickerhamomyces anomalus = test: Antifungal activity against Candida pelliculosa after 24 to 48 hrs by AFST-EUCAST based broth microdilution method; details: Hansenula anomala
Diutina rugosa = test: Antifungal activity against Candida rugosa after 24 to 48 hrs by AFST-EUCAST based broth microdilution method
Cyberlindnera jadinii = test: Antifungal activity against Candida utilis after 24 to 48 hrs by AFST-EUCAST based broth microdilution method; details: Williopsis jadinii
[Candida] inconspicua = Antifungal activity against Candida inconspicua after 24 to 48 hrs by AFST-EUCAST based broth microdilution method; details: Pichia inconspicua
[Candida] intermedia = Antifungal activity against Candida intermedia after 24 to 48 hrs by AFST-EUCAST based broth microdilution method; details: Sungouiella intermedia
Candida africana = test: Antifungal activity against Candida africana after 24 to 48 hrs by AFST-EUCAST based broth microdilution method
Pichia fermentans = test: Antifungal activity against Candida lambica after 24 to 48 hrs by AFST-EUCAST based broth microdilution method
Nakaseomyces nivariensis = test: Antifungal activity against Candida nivariensis after 24 to 48 hrs by AFST-EUCAST based broth microdilution method
Pichia norvegensis = test: Antifungal activity against Candida norvegensis after 24 to 48 hrs by AFST-EUCAST based broth microdilution method
Kluyveromyces lactis = test: Antifungal activity against Candida sphaerica after 24 to 48 hrs by AFST-EUCAST based broth microdilution method
Saccharomyces cerevisiae = test: Antifungal activity against Saccharomyces cerevisiae after 24 to 48 hrs by AFST-EUCAST based broth microdilution method
Geotrichum = test: Antifungal activity against Geotrichum after 24 to 48 hrs by AFST-EUCAST based broth microdilution method
Cyberlindnera saturnus = test: Antifungal activity against Williopsis saturnus after 24 to 48 hrs by AFST-EUCAST based broth microdilution method
Kodamaea ohmeri = test: Antifungal activity against Kodamaea ohmeri after 24 to 48 hrs by AFST-EUCAST based broth microdilution method
Zygosaccharomyces = test: Antifungal activity against Zygosaccharomyces after 24 to 48 hrs by AFST-EUCAST based broth microdilution method
Cryptococcus neoformans = test: Antifungal activity against […] after 24 to 48 hrs by AFST-EUCAST based broth microdilution method
Trichosporon = test: Antifungal activity against Trichosporon after 24 to 48 hrs by AFST-EUCAST based broth microdilution method
Rhodotorula mucilaginosa = test: Antifungal activity against Rhodotorula mucilaginosa after 24 to 48 hrs by AFST-EUCAST based broth microdilution method

## CC[C@H](C)C[C@H](C)CCCCCCCCC(=O)N[C@H]1C[C@@H](O)[C@@H](NCCN)NC(=O)[C@@H]2[C@@H](O)CCN2C(=O)[C@H]([C@H](O)CCN)NC(=O)[C@H]([C@H](O)[C@@H](O)c2ccc(O)cc2)NC(=O)[C@@H]2C[C@@H](O)CN2C(=O)[C@H]([C@@H](C)O)NC1=O [CASPOFUNGIN]
Candida albicans
  MIC50: 0.5 µg/mL (≈ 0.457 µM)
  MIC90: 0.5 µg/mL (≈ 0.457 µM)
Nakaseomyces glabratus
  MIC50: 0.5 µg/mL (≈ 0.457 µM)
  MIC90: 1 µg/mL (≈ 0.915 µM)
Candida parapsilosis
  MIC50: 2 µg/mL (≈ 1.83 µM)
  MIC90: 2 µg/mL (≈ 1.83 µM)
Candida tropicalis
  MIC50: 0.5 µg/mL (≈ 0.457 µM)
  MIC90: 1 µg/mL (≈ 0.915 µM)
[1]
  MIC50: 2 µg/mL (≈ 1.83 µM)
  MIC90: 2 µg/mL (≈ 1.83 µM)
Pichia kudriavzevii
  MIC50: 1 µg/mL (≈ 0.915 µM)
  MIC90: 2 µg/mL (≈ 1.83 µM)
Kluyveromyces marxianus
  MIC50: 0.25 µg/mL (≈ 0.229 µM)
  MIC90: 0.5 µg/mL (≈ 0.457 µM)
[Candida] haemuloni
  MIC50: 1 µg/mL (≈ 0.915 µM)
  MIC90: 2 µg/mL (≈ 1.83 µM)
Clavispora lusitaniae
  MIC50: 1 µg/mL (≈ 0.915 µM)
  MIC90: 1 µg/mL (≈ 0.915 µM)
Meyerozyma caribbica
  MIC50: 1 µg/mL (≈ 0.915 µM)
  MIC90: 2 µg/mL (≈ 1.83 µM)
Candida dubliniensis
  MIC50: 0.5 µg/mL (≈ 0.457 µM)
  MIC90: 1 µg/mL (≈ 0.915 µM)
Yarrowia lipolytica
  MIC50: 0.5 µg/mL (≈ 0.457 µM)
  MIC90: 1 µg/mL (≈ 0.915 µM)
Debaryomyces hansenii
  MIC50: 0.5 µg/mL (≈ 0.457 µM)
  MIC90: 1 µg/mL (≈ 0.915 µM)
Wickerhamomyces anomalus
  MIC50: 0.5 µg/mL (≈ 0.457 µM)
  MIC90: 1 µg/mL (≈ 0.915 µM)
Diutina rugosa
  MIC50: 0.5 µg/mL (≈ 0.457 µM)
  MIC90: 1 µg/mL (≈ 0.915 µM)
Cyberlindnera jadinii
  MIC50: 0.5 µg/mL (≈ 0.457 µM)
  MIC90: 1 µg/mL (≈ 0.915 µM)
[Candida] inconspicua
  MIC50: 0.5 µg/mL (≈ 0.457 µM)
  MIC90: 1 µg/mL (≈ 0.915 µM)
[Candida] intermedia
  MIC50: 0.5 µg/mL (≈ 0.457 µM)
  MIC90: 1 µg/mL (≈ 0.915 µM)
Candida africana
  MIC50: 0.5 µg/mL (≈ 0.457 µM)
  MIC90: 1 µg/mL (≈ 0.915 µM)
Pichia fermentans
  MIC50: 0.5 µg/mL (≈ 0.457 µM)
  MIC90: 1 µg/mL (≈ 0.915 µM)
Nakaseomyces nivariensis
  MIC50: 0.5 µg/mL (≈ 0.457 µM)
  MIC90: 1 µg/mL (≈ 0.915 µM)
Pichia norvegensis
  MIC50: 0.5 µg/mL (≈ 0.457 µM)
  MIC90: 1 µg/mL (≈ 0.915 µM)
Kluyveromyces lactis
  MIC50: 0.5 µg/mL (≈ 0.457 µM)
  MIC90: 1 µg/mL (≈ 0.915 µM)
Saccharomyces cerevisiae
  MIC50: 1 µg/mL (≈ 0.915 µM)
  MIC90: 16 µg/mL (≈ 14.6 µM)
Geotrichum
  MIC50: 1 µg/mL (≈ 0.915 µM)
  MIC90: 16 µg/mL (≈ 14.6 µM)
Cyberlindnera saturnus
  MIC50: 1 µg/mL (≈ 0.915 µM)
  MIC90: 16 µg/mL (≈ 14.6 µM)
Kodamaea ohmeri
  MIC50: 1 µg/mL (≈ 0.915 µM)
  MIC90: 16 µg/mL (≈ 14.6 µM)
Zygosaccharomyces
  MIC50: 1 µg/mL (≈ 0.915 µM)
  MIC90: 16 µg/mL (≈ 14.6 µM)
Cryptococcus neoformans
  MIC50: 8 µg/mL (≈ 7.32 µM)
  MIC90: 16 µg/mL (≈ 14.6 µM)
Trichosporon
  MIC50: 16 µg/mL (≈ 14.6 µM)
Rhodotorula mucilaginosa
  MIC50: 16 µg/mL (≈ 14.6 µM)

## CCCCCOc1ccc(-c2cc(-c3ccc(C(=O)N[C@H]4C[C@@H](O)[C@@H](O)NC(=O)[C@@H]5[C@@H](O)[C@@H](C)CN5C(=O)[C@H]([C@H](O)CC(N)=O)NC(=O)[C@H]([C@H](O)[C@@H](O)c5ccc(O)c(OS(=O)(=O)O)c5)NC(=O)[C@@H]5C[C@@H](O)CN5C(=O)[C@H]([C@@H](C)O)NC4=O)cc3)no2)cc1 [MICAFUNGIN] (X1-[Orn(4R-OH,5R-OH)]T[Hyp][hTyr(3S-OH,4S-OH,3'-OSO3H)][Gln(3R-OH)][Pro(3S-OH,4S-Me)]; lactam 1-C)
Candida albicans
  MIC50: 0.03 µg/mL (≈ 0.0236 µM)
  MIC90: 0.06 µg/mL (≈ 0.0472 µM)
Nakaseomyces glabratus
  MIC50: 0.03 µg/mL (≈ 0.0236 µM)
  MIC90: 0.06 µg/mL (≈ 0.0472 µM)
Candida parapsilosis
  MIC50: 2 µg/mL (≈ 1.57 µM)
  MIC90: 2 µg/mL (≈ 1.57 µM)
Candida tropicalis
  MIC50: 0.06 µg/mL (≈ 0.0472 µM)
  MIC90: 0.125 µg/mL (≈ 0.0984 µM)
[1]
  MIC50: 1 µg/mL (≈ 0.787 µM)
  MIC90: 2 µg/mL (≈ 1.57 µM)
Pichia kudriavzevii
  MIC50: 0.25 µg/mL (≈ 0.197 µM)
  MIC90: 0.25 µg/mL (≈ 0.197 µM)
Kluyveromyces marxianus
  MIC50: 0.125 µg/mL (≈ 0.0984 µM)
  MIC90: 0.25 µg/mL (≈ 0.197 µM)
[Candida] haemuloni
  MIC50: 0.25 µg/mL (≈ 0.197 µM)
  MIC90: 0.25 µg/mL (≈ 0.197 µM)
Clavispora lusitaniae
  MIC50: 0.25 µg/mL (≈ 0.197 µM)
  MIC90: 0.5 µg/mL (≈ 0.394 µM)
Meyerozyma caribbica
  MIC50: 1 µg/mL (≈ 0.787 µM)
  MIC90: 1 µg/mL (≈ 0.787 µM)
Candida dubliniensis
  MIC50: 0.06 µg/mL (≈ 0.0472 µM)
  MIC90: 1 µg/mL (≈ 0.787 µM)
Yarrowia lipolytica
  MIC50: 0.06 µg/mL (≈ 0.0472 µM)
  MIC90: 1 µg/mL (≈ 0.787 µM)
Debaryomyces hansenii
  MIC50: 0.06 µg/mL (≈ 0.0472 µM)
  MIC90: 1 µg/mL (≈ 0.787 µM)
Wickerhamomyces anomalus
  MIC50: 0.06 µg/mL (≈ 0.0472 µM)
  MIC90: 1 µg/mL (≈ 0.787 µM)
Diutina rugosa
  MIC50: 0.06 µg/mL (≈ 0.0472 µM)
  MIC90: 1 µg/mL (≈ 0.787 µM)
Cyberlindnera jadinii
  MIC50: 0.06 µg/mL (≈ 0.0472 µM)
  MIC90: 1 µg/mL (≈ 0.787 µM)
[Candida] inconspicua
  MIC50: 0.06 µg/mL (≈ 0.0472 µM)
  MIC90: 1 µg/mL (≈ 0.787 µM)
[Candida] intermedia
  MIC50: 0.06 µg/mL (≈ 0.0472 µM)
  MIC90: 1 µg/mL (≈ 0.787 µM)
Candida africana
  MIC50: 0.06 µg/mL (≈ 0.0472 µM)
  MIC90: 1 µg/mL (≈ 0.787 µM)
Pichia fermentans
  MIC50: 0.06 µg/mL (≈ 0.0472 µM)
  MIC90: 1 µg/mL (≈ 0.787 µM)
Nakaseomyces nivariensis
  MIC50: 0.06 µg/mL (≈ 0.0472 µM)
  MIC90: 1 µg/mL (≈ 0.787 µM)
Pichia norvegensis
  MIC50: 0.06 µg/mL (≈ 0.0472 µM)
  MIC90: 1 µg/mL (≈ 0.787 µM)
Kluyveromyces lactis
  MIC50: 0.06 µg/mL (≈ 0.0472 µM)
  MIC90: 1 µg/mL (≈ 0.787 µM)
Saccharomyces cerevisiae
  MIC50: 0.25 µg/mL (≈ 0.197 µM)
  MIC90: 16 µg/mL (≈ 12.6 µM)
Geotrichum
  MIC50: 0.25 µg/mL (≈ 0.197 µM)
  MIC90: 16 µg/mL (≈ 12.6 µM)
Cyberlindnera saturnus
  MIC50: 0.25 µg/mL (≈ 0.197 µM)
  MIC90: 16 µg/mL (≈ 12.6 µM)
Kodamaea ohmeri
  MIC50: 0.25 µg/mL (≈ 0.197 µM)
  MIC90: 16 µg/mL (≈ 12.6 µM)
Zygosaccharomyces
  MIC50: 0.25 µg/mL (≈ 0.197 µM)
  MIC90: 16 µg/mL (≈ 12.6 µM)
Cryptococcus neoformans
  MIC50: 16 µg/mL (≈ 12.6 µM)
  MIC90: 16 µg/mL (≈ 12.6 µM)
Trichosporon
  MIC50: 16 µg/mL (≈ 12.6 µM)
Rhodotorula mucilaginosa
  MIC50: 16 µg/mL (≈ 12.6 µM)
